Columns and labels:
Cricetinae gen. sp. [1] = assay: In vivo inhibition in HLE-induced hamster lung hemorrhage when given orally at 10 mg/kg, 2 hr before challenge by HLE; assay type: functional; settings: route oral
[2] = target: T1, Neutrophil elastase (Homo sapiens) (UniProt P08246); assay: (§1) In vitro inhibition of Human Leukocyte Elastase enzyme in whole blood stimulated with A-23187 (at dose 3 uM); assay type: functional, tissue-based
T1 sequence (whole entry): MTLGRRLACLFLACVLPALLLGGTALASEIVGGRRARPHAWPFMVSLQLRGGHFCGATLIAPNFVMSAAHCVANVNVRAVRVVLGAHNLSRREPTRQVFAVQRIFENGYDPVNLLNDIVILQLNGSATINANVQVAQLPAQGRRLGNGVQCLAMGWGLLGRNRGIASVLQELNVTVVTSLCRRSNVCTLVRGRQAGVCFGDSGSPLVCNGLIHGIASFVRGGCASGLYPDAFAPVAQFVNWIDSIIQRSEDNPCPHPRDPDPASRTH

[3] = target: T1, Neutrophil elastase (Homo sapiens); assay: Compound was tested for inhibition of Human Leukocyte Elastase enzyme, expressed in term of bimolecular rate constant (Kinact/Ki)
Cricetinae gen. sp. [4] = assay: Effective dose required to in vivo inhibition in HLE-induced hamster lung hemorrhage when given orally 5 hr before the enzyme; assay type: functional; settings: po
Neutrophil elastase = target: T2, Neutrophil elastase (Homo sapiens, UniProt P08246); assay: as §1; assay type: functional, tissue-based
T2 sequence (P08246 whole entry): T1 sequence (whole entry)

Structure (SMILES) | inhibition in vivo at 10 mg/kg (Cricetinae gen. sp. [1]) | inhibition [2] | Ratio [3] | ED50 (Cricetinae gen. sp. [4]) | IC50 (Neutrophil elastase)
C=CCP(=O)(O)Cc1ccc(O[C@@H]2N(C(=O)N[C@H](CCC)c3ccc(C)cc3)C(=O)C2(CC)CC)cc1 | 19% | 48% | 740000 M⁻¹ s⁻¹ |  | 
CCC[C@@H](NC(=O)N1C(=O)C(CC)(CC)[C@@H]1Oc1ccc(CP(=O)(CCC)OC(OC(=O)CC)C(C)C)cc1)c1ccc(C)cc1 (stereo not given in full) |  |  | 1.05e+06 M⁻¹ s⁻¹ |  | 
CCC[C@@H](NC(=O)N1C(=O)C(CC)(CC)[C@@H]1Oc1ccc(CP(=O)(O)O)cc1)c1ccc(C)cc1 | 17% | 61% | 217000 M⁻¹ s⁻¹ |  | 
CCC[C@@H](NC(=O)N1C(=O)C(CC)(CC)[C@@H]1Oc1ccc(CP(=O)(O)CCC)cc1)c1ccc(C)cc1 | 15% | 50% | 906000 M⁻¹ s⁻¹ |  | 
CCC[C@@H](NC(=O)N1C(=O)C(CC)(CC)[C@@H]1Oc1ccc(CP(=O)(O)c2ccccc2)cc1)c1ccc(C)cc1 | 27% | 34% | 1.17e+06 M⁻¹ s⁻¹ |  | 
CCC[C@@H](NC(=O)N1C(=O)C(CC)(CC)[C@@H]1Oc1ccc(CP(=O)(OCC)OCC)cc1)c1ccc(C)cc1 | 15% | 63% | 1.16e+06 M⁻¹ s⁻¹ |  | 
C=CCP(=O)(Cc1ccc(O[C@@H]2N(C(=O)N[C@H](CCC)c3ccc(C)cc3)C(=O)C2(CC)CC)cc1)OCC (stereo not given in full) | 64% | 51% | 1.33e+06 M⁻¹ s⁻¹ |  | 
CCC[C@@H](NC(=O)N1C(=O)C(CC)(CC)[C@@H]1Oc1ccc(CP(C)(=O)O)cc1)c1ccc(C)cc1 | -59% | 55% | 417000 M⁻¹ s⁻¹ |  | 
CCC[C@@H](NC(=O)N1C(=O)C(CC)(CC)[C@@H]1Oc1ccc(CC(=O)O)cc1)c1ccc(C)cc1 |  |  | 622000 M⁻¹ s⁻¹ | 1.5 mg/kg | 9 µM

Reference: ChEMBL document CHEMBL1128120, “Phosphorous acid analogs of L-680,833, a potent monocyclic -lactam inhibitor of human leukocyte elastase” (Bioorg Med Chem Lett, 1995)
